Reference: PMC10972148, “Cloning and Characterization of a Novel N-Acetyl-D-galactosamine-4-O-sulfate Sulfatase, SulA1, from a Marine Arthrobacter Strain” (Marine Drugs, 2024)

Tested on: T1, SulA1
T1 construct: forward primer encodes MVSSSPA (translated here)
Experiment: GalNAc release by HPAEC-PAD, Michaelis-Menten nonlinear fit
Type: biochemical, Arthrobacter sp. MAT3885
Settings: pH 5.5, 40 °C, 30 min, 0-20 mM substrate; 100 mM acetate buffer; unit not printed beside the value, taken from the mM axis of Figure 9B

CC(=O)N[C@H]1C(O)O[C@H](CO)[C@H](OS(=O)(=O)O)[C@@H]1O (stereo partly drawn) [GalNAc4S, N-Acetyl-D-galactosamine-4-sulfate]
Km: 6.94 ± 0.053 mM
